The target of assay [1] is purified human, His-tagged PRC2 complex (Homo sapiens (Human), UniProt O75530). Nature of the assay: Hot Spot HMT assay, inhibition of PRC2 enzymatic activity. Type of assay: biochemical. As to conditions: 10 nM PRC2 complex, 0.05 mg/ml core histone H3, 1 μM 3H-SAM, 1 hr at 30° C.; read-out: IC50, Inhibition of PRC2-mediated Enzymatic Activity. On the procedure:
Ten-point dose-response curves for compounds of the present invention were determined using a Hot Spot HMT assay (Reaction Biology Corp; see Horiuchi et al., Assay Drug Dev Technol. (2013) 4: 227-236 doi: 10.1089/adt.2012.480). The assay uses purified human, His-tagged PRC2 complex, including N-terminal His-tagged EZH2 enzyme, N-terminal Flag-tagged embryonic ectoderm development protein (EED), N-terminal His-tagged suppressor of zeste 12 (SUZ12), N-terminal His-tagged AEBP2, and N-terminal His-tagged RbAp48. In this assay, the transfer of the tritiated methyl group from radiolabeled S-adenosyl methionine (SAM) to purified core histone protein by EZH2 is quantitated after filtration to determine the activity of the core PRC2 complex in the presence and absence of compound.
Briefly, compounds of the present invention were solubilized in DMSO and a series of 10, three-fold serial dilutions were made for each compound in 15% DMSO. The initial starting concentration for the serial dilutions of each compound was 1.0 μM. Control samples lacking compound, EZH2 enzyme or various reaction components also were prepared and processed in parallel with compound test samples. SAH (S-(5-adenosyl)-L-homocysteine) was used as a positive control for assay validation.
An aliquot of each serial dilution of test compound was added to deep 384 well plate using Acoustic Technology instrument (Echo 550, LabCyte) containing reaction buffer (50 mM Tris-HCl (pH 8)), 0.01% Brij35, 1 mM EDTA, 1 mM DTT, 1 mM PMSF and 1% DMSO), 10 nM purified PRC2 complex and 0.05 mg/ml core histone H3 in a 5 μl volume. The reaction was mixed gently and then pre-incubated for 20 min at 30° C. The enzymatic reaction was initiated by adding 1 μM S-Adenosyl-L-[methyl-^3H]methionine and incubated for 1 hr at 30° C. After 1 hr, the reaction product was detected using a filter binding method and the amount of tritiated H3 core histone was quantitated using a scintillation counter. The IC50 value for each compound was determined from each 10-point dose-response curve using GraphPad Prism software and the results for compounds of present invention, including compounds of Formula (I) and Formula (II) are shown in Table 6. Key: A=<100 nM; B=>100 nM−<250 nM; and C=>250 nM.

In assay [2] the test system is Karpas 422 cells (EZH2 Y641N). The assay can be described thus: Karpas 422 cell viability (Cell Titre Glo). To be noted: Homo sapiens, CTG viability, Day 4, Day 7 or Day 11 (time point not given), read-out: IC50 (nM), Inhibiting Proliferation of Cells Expressing an Activating Mutant Form of EZH2. The format is cell-based. On the procedure:
Karpas 422 cell line is a human B cell non-Hodgkin's lymphoma cell line established from a patient having DLBCL. This EZH2 heterozygotic cell line expresses a mutant form of EZH2 enzyme (Y641N) that increases histone H3 methylation and this mutation has been implicated in the tumorgenesis of lymphomas, such as DLBCL.
Karpas 422 cells (PHE cat no., 06101702) were cultured in RPMI medium supplemented with 20% fetal bovine serum and 1% penicillin/1% streptomycin and plated at a density of 1000 cells/90 μl/well in 96 well white assay plates. A dose response curve for compounds of the present invention was determined by adding a 10 μl aliquot of stock solutions of varying concentrations of compounds to the same medium in each well, over a concentration range of 10 μM using 3-fold dilutions to a final concentration of 1.5 nM. The plates were incubated at 37° C. for predetermined time periods, Day 4, Day 7, or Day 11, and the viability of the cells was measured using a CTG assay kit (Cell Titre Glo; Promega cat. no G7573) on Day 4 and Day 7 in accordance with the manufacturer's instructions.
For the viability assay for the Day 11 plates, the plates were subjected to centrifugation at 1100 rpm for five minutes on Day 7 and the supernatant was removed by aspiration. The cells were resuspended in 90 μl aliquot of the appropriate growth medium lacking the compound followed by addition of 10 μl of a 10× stock of the same compound at the same concentration. The viability of the Day 11 cells was measured using the CTG assay kit described above in accordance with the manufacturer's instructions. The IC50 values for each compound at each predetermined time point were calculated using Graph pad PRISM software and the results are shown in Table 8. A=≤250 nM; B=[…]−≤500 nM; C=>500 nM and N.D.=not determined.

For assay [3], the system named is PRC2-mediated histone H3 methylation in Pfeiffer cells (EZH2 A677G). The assay can be described thus: Tri-Methyl Histone H3 (Lys 27) sandwich ELISA in Pfeiffer cells. The format is cell-based. To be noted: Homo sapiens, 96 hours incubation, H3K27me3 ELISA, read-out: IC50 (nM), Inhibition of EZH2-mediated Histone H3 Trimethylation. From the text: The Pfeiffer cell line was established from a […] from a patient having metastatic diffuse large B-cell lymphoma (DLBCL). This cell line expresses a mutant form of the EZH2 enzyme (A677G) that results in enhanced EZH2 activity leading to increased methylation of histone H3 Lys27. Increased trimethylation of histone H3 Lys27 is believed to be implicated in tumorgenesis and poor clinical prognosis in lymphomas (McCabe et al., (2012) Nature 492:108-112).
Inhibition of PRC2-mediated histone H3 methylation by compounds of Formula (I) was measured by ELISA using a Tri-Methyl Histone H3 (Lys 27) Sandwich ELISA Kit (Cell Signaling Tech #7866C) in accordance with the manufacturer's instructions. Briefly, Pfeiffer cells were cultured in RPMI medium supplemented with 10% fetal bovine serum and 1% penicillin and 1% streptomycin in 96 well culture plates at 37° C. to a density of 8000 cells/90 μl/well and the cells were harvested. A series of 3-fold serial dilutions of each test compound of Formula (I) were prepared in RPMI medium and added to the cells at final concentrations ranging from […] to 0.15 nM. The plates were incubated at 37° C. for 96 hours.
After incubation, the cells were pelleted by centrifugation in a pre-cooled 4° C. rotor at 1,100 rpm for 10 min and the supernatant was removed by aspiration. The cell pellet was resuspended in 55 μl of Lysis Buffer (0.4M HCl) and incubated on ice with periodic shaking for 30 minutes. The lysed cells were subjected to centrifugation at 4,200 rpm for 10 min at 4° C. and the supernatant containing acid-soluble proteins was collected and the remainder discarded. The acid-soluble proteins were brought to a neutral pH by the addition of 20 μl of Neutralization Buffer (1 M Sodium phosphate, dibasic (pH 12.5), 2.5 mM DTT and 1 mM PMSF) and the neutralized lysates were analyzed by ELISA.
A 65 μl aliquot of each cell lysate was added to a well of a microwell strip, the microwells were sealed using tape and incubated either at 37° C. for two hours or at 4° C. overnight. After incubation, the tape was removed at the microwells were washed four times using 200 μl of 1× Wash Buffer. To each washed microwell, a 100 μl aliquot of an anti-trimethyl histone H3 Lys27 Detection Antibody solution was added and the microwells were incubated at 37° C. for one hour. The Detection Antibody solution was removed by aspiration and the wells were washed four times each using 200 μl of 1× Wash Buffer.
A 100 μl aliquot of an HRP-linked secondary antibody was added to each well, the wells were sealed with tape and incubated at 37° C. for 30 min. The HRP-linked secondary antibody solution was removed by aspiration and the wells were washed four times using 200 μl of 1× Wash Buffer. A 100 μl aliquot of a TMB substrate was added to each well, the wells were sealed with tape and incubated at 37° C. for 10 min or 25° C. for 30 min. The reaction was stopped by the addition of 100 μl aliquot of a STOP solution and the plate was shaken briefly. The degree of histone H3 trimethylation was determined using a spectrophotometric readout by measuring the absorbance at 450 nm and then calculating the amount of trimethylated histone H3. A=≤100 nM; B=>100 nM−≤500 nM; C=>500 nM and N.D.=not determined.
In general terms: An ELISA detects its analyte on a solid surface through an enzyme-linked reagent.

Molecules are shown by their SMILES.

purified human, His-tagged PRC2 complex, sequence (Q15910 whole entry): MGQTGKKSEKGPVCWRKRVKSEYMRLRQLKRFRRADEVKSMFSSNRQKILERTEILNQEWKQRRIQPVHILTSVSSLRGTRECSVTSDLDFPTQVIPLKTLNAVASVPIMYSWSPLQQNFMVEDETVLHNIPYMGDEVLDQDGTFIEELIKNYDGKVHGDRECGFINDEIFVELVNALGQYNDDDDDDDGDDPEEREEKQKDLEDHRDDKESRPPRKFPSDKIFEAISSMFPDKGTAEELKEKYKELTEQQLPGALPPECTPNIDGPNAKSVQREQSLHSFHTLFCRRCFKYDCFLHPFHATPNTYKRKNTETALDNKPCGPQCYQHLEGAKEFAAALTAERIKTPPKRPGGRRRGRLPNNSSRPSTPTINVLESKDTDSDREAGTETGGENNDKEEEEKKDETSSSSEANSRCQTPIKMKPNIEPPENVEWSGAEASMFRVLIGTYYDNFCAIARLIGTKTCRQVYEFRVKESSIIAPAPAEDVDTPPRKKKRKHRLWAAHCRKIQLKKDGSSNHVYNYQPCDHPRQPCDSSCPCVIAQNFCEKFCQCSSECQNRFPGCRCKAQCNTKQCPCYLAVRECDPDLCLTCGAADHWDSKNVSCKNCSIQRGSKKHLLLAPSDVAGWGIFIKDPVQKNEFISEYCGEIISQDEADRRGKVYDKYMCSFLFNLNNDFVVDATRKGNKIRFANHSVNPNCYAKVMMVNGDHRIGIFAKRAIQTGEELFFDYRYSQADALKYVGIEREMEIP
purified human, His-tagged PRC2 complex, sequence (O75530 whole entry): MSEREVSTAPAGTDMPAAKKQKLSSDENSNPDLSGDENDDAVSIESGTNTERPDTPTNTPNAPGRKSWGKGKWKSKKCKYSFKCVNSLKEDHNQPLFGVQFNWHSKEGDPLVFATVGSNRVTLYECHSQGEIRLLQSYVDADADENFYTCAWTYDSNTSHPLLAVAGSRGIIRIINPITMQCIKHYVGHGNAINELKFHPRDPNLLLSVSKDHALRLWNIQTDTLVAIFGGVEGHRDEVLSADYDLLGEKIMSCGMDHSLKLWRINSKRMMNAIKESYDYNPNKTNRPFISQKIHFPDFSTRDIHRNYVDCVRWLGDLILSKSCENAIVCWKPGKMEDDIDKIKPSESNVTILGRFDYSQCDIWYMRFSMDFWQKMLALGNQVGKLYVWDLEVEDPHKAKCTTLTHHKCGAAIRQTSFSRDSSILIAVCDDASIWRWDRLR
purified human, His-tagged PRC2 complex, sequence (Q15022 whole entry partner): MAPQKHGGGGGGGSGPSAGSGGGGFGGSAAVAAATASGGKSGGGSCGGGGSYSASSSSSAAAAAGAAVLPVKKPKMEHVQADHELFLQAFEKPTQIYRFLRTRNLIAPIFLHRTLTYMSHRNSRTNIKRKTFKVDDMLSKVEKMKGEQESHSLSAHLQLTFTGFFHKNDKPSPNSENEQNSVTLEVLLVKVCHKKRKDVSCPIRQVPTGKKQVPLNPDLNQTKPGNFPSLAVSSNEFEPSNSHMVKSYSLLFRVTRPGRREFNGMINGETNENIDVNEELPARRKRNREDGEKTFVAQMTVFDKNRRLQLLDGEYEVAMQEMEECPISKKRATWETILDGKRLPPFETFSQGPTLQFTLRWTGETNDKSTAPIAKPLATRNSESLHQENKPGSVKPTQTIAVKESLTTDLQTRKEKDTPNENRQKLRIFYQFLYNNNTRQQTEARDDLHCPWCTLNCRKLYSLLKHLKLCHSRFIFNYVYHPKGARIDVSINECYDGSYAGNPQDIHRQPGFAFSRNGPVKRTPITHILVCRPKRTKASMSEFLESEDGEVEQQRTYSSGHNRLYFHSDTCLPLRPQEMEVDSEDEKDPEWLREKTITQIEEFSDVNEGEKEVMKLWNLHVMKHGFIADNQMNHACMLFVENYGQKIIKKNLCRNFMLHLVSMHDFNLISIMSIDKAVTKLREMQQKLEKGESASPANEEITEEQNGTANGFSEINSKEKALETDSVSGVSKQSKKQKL
purified human, His-tagged PRC2 complex, sequence (Q6ZN18 whole entry partner): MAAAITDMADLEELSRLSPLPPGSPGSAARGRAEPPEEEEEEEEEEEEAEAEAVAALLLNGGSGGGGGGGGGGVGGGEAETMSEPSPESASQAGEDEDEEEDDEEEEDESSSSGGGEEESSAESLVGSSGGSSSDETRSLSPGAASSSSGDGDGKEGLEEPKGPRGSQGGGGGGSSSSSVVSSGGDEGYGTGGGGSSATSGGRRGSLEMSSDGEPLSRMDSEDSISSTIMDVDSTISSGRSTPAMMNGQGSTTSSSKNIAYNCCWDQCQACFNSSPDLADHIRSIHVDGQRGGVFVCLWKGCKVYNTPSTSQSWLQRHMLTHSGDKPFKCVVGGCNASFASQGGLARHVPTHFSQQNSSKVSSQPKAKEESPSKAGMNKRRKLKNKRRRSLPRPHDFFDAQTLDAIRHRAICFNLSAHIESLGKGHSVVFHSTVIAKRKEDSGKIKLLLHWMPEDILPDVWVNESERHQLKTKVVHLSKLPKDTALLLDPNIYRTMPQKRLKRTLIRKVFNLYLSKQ
purified human, His-tagged PRC2 complex, sequence (Q09028 whole entry partner): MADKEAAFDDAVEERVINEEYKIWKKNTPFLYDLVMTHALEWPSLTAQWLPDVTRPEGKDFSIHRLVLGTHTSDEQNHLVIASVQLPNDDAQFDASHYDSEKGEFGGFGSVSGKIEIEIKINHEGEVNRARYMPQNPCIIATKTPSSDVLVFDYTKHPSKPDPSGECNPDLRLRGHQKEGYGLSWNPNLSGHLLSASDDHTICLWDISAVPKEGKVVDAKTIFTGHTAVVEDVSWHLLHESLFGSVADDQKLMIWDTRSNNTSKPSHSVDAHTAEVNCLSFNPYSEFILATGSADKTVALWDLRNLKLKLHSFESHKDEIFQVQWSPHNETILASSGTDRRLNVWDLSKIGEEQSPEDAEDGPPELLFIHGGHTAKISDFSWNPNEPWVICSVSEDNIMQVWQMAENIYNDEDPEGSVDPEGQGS

With `CN(C)C(=O)c1cc(-c2cnc(NCc3c(F)ccc4c3CCO4)c3cnccc23)n(C)n1` [Example 32, 5-(1-(((5-fluoro-2,3-dihydrobenzofuran-4-yl)methyl)amino)-2,7-naphthyridin-4-yl)-N,N,1-trimethyl-1H-pyrazole-3-carboxamide], the IC50 in assay [1] is under 100 nM; in assay [2] it was at most 250 nM; in assay [3] it was at most 100 nM.
Take `Cn1nc(C#N)cc1-c1cnc(NCc2c(F)ccc3c2CCO3)c2cnccc12` [Example 33, 5-[1-[(5-fluoro-2,3-dihydrobenzofuran-4-yl)methylamino]-2,7-naphthyridin-4-yl]-1-methyl-pyrazole-3-carbonitrile]: the values for the IC50 in assay [1], in assay [2] and in assay [3] were 100 to 250 nM, over 500 nM and over 500 nM, respectively.
For the compound `COc1cc2c(-c3cc(C)nn3C)cnc(NCc3c(F)ccc4c3CCO4)c2cn1` [Example 34, 4-(1,3-dimethyl-1H-pyrazol-5-yl)-N-((5-fluoro-2,3-dihydrobenzofuran-4-yl)methyl)-6-methoxy-2,7-naphthyridin-1-amine], the IC50 in assay [1] is 100 to 250 nM; in assay [2], over 500 nM; in assay [3] it was over 500 nM.
On to `Cc1cc(-c2cnc(NCc3c(F)ccc4c3CCO4)c3c[nH]c(=O)cc23)n(C)n1` [Example 35, 5-(1,3-dimethyl-1H-pyrazol-5-yl)-8-(((5-fluoro-2,3-dihydrobenzofuran-4-yl)methyl)amino)-2,7-naphthyridin-3(2H)-one], for which the values for the IC50 in assay [1], in assay [2] and in assay [3] were under 100 nM, at most 250 nM and at most 100 nM, respectively.
In the same order, the values of `Cc1ncccc1-c1cnc(NCc2c(F)ccc3c2CCO3)c2c[nH]c(=O)cc12` [Example 36] are over 250 nM, at most 250 nM and 100 to 500 nM.
Regarding `O=c1cc2c(-c3ccc(CN4CCCC4)cc3)cnc(NCc3c(F)ccc4c3CCO4)c2c[nH]1` [Example 37], the figures for the IC50 in assay [1], in assay [2] and in assay [3] were 100 to 250 nM, at most 250 nM and 100 to 500 nM, respectively.
In the same order, the values of `CN(C)Cc1ccc(-c2cnc(NCc3c(F)ccc4c3CCO4)c3c[nH]c(=O)cc23)cc1` [Example 38] are 100 to 250 nM, at most 250 nM and 100 to 500 nM.
In the same order, the values of `Cn1nncc1-c1cnc(NCc2c(F)ccc3c2CCO3)c2c[nH]c(=O)cc12` [Example 39] are over 250 nM, over 500 nM and over 500 nM.
In the same order, the values of `Cc1cc(S(C)(=O)=O)ccc1-c1cnc(NCc2c(F)ccc3c2CCO3)c2c[nH]c(=O)cc12` [Example 40] are 100 to 250 nM, at most 250 nM and 100 to 500 nM.
Turning to `Cc1cc(CN(C)C)ccc1-c1cnc(NCc2c(F)ccc3c2CCO3)c2c[nH]c(=O)cc12` [Example 41], the IC50 in assay [1] was 100 to 250 nM; in assay [2], 250 to 500 nM; in assay [3] it was 100 to 500 nM.
Turning to `Cc1cc(-c2cnc(NCc3c(F)ccc4c3CCO4)c3cnc(OC(C)C)cc23)n(C)n1` [Example 43], the IC50 in assay [1] was over 250 nM; in assay [2] it was over 500 nM; in assay [3], over 500 nM.
With `Cc1cc(-c2cnc(NCc3c(F)ccc4c3CCO4)c3cnc(OCCN(C)C)cc23)n(C)n1` [Example 44], the IC50 in assay [1] was over 250 nM; in assay [2], at most 250 nM; in assay [3] it was 100 to 500 nM.
Turning to `COCCOc1cc2c(-c3cc(C)nn3C)cnc(NCc3c(F)ccc4c3CCO4)c2cn1` [Example 45], the IC50 is 100 to 250 nM in assay [1], at most 250 nM in assay [2] and 100 to 500 nM in assay [3].
In the same order, the values of `CN(C)CCn1nccc1-c1cnc(NCc2c(F)ccc3c2CCO3)c2c[nH]c(=O)cc12` [Example 46, 5-(1-(2-(dimethylamino)ethyl)-1H-pyrazol-5-yl)-8-(((5-fluoro-2,3-dihydrobenzofuran-4-yl)methyl)amino)-2,7-naphthyridin-3(2H)-one] are over 250 nM, at most 250 nM and 100 to 500 nM.
In the case of `CN(C)C(=O)c1cc(-c2cnc(NCc3c(F)ccc4c3CCO4)c3c[nH]c(=O)cc23)n(C)n1` [Example 47, 5-(1-(((5-fluoro-2,3-dihydrobenzofuran-4-yl)methyl)amino)-6-oxo-6,7-dihydro-2,7-naphthyridin-4-yl)-N,N,1-trimethyl-1H-pyrazole-3-carboxamide], the IC50 in assay [1] was under 100 nM; in assay [2], at most 250 nM; in assay [3], 100 to 500 nM.
Regarding `Cn1nc(C#N)cc1-c1cnc(NCc2c(F)ccc3c2CCO3)c2c[nH]c(=O)cc12` [Example 48], the IC50 was under 100 nM in assay [1], at most 250 nM in assay [2] and 100 to 500 nM in assay [3].

For the origin of these results see patent US12421228B2 (Mirati Therapeutics, Inc., priority 2019, dated 2025).
